Our source for the GI50 and TGI values is PubChem BioAssay (NCI).

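Dose response: 5 concentrations. Exposure: 48 h. Format: 96-well plates. Endpoint: linear interpolation; highest concentration if not reached. GI50 = concentration required for 50% inhibition of growth. TGI: total growth inhibition.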 A value given as a limit tells only on which side of the number the result lay.

Test systems include HL-60(TB) leukemia; CCRF-CEM leukemia; OVCAR-8 ovarian; SN12C renal; SF-295 CNS; SF-539 CNS; PC-3 prostate; HT29 colon; HS 578T breast; SNB-75 CNS.
Common to all, as to assay: NCI tumour cell line growth inhibition, 48 h

Consider `O=C(Nc1ccccc1O)c1ccc(NS(=O)(=O)c2cccc3cccnc23)cc1`, for which the GI50 in the assay with HL-60(TB) leukemia was 1.03 µM; in the assay on CCRF-CEM leukemia, 1.05 µM; with OVCAR-8 ovarian it was 0.665 µM; in the assay with SN12C renal it was 2.78 µM; in the assay with SF-295 CNS, 1.09 µM; with SF-539 CNS it was 0.76 µM. The GI50 in the assay on PC-3 prostate was 1.46 µM; in the assay with HT29 colon, 1.18 µM; in the assay on HS 578T breast it was 0.787 µM; in the assay on SNB-75 CNS it was 0.511 µM. In addition, the TGI in the assay with HL-60(TB) leukemia is 12.9 µM; with CCRF-CEM leukemia it was more than 25 µM; with OVCAR-8 ovarian, 7.25 µM; in the assay on SN12C renal, more than 19.7 µM; in the assay on SF-295 CNS, 4.77 µM; with SF-539 CNS, 10.1 µM. For the same compound, the TGI was 8.25 µM in the assay with PC-3 prostate, more than 16 µM in the assay on HT29 colon, 11.8 µM with HS 578T breast and 8.03 µM in the assay with SNB-75 CNS.

For `O=C(Nc1cc(Oc2cc(F)c(NC(=O)C3(C(=O)Nc4ccc(F)cc4)CC3)cc2F)ccn1)C1CC1`, the GI50 in the assay with HL-60(TB) leukemia is 2.18 µM; with CCRF-CEM leukemia, 2.39 µM; with OVCAR-8 ovarian, 3.25 µM; with SN12C renal, 2.68 µM; with SF-295 CNS, 2.21 µM; with SF-539 CNS it was 1.83 µM. The GI50 was 2.51 µM with PC-3 prostate, 0.929 µM in the assay on HT29 colon, 2.5 µM with HS 578T breast and 1.49 µM in the assay with SNB-75 CNS. Also, the TGI in the assay with HL-60(TB) leukemia is 5.6 µM; in the assay on CCRF-CEM leukemia it was 7.59 µM; with OVCAR-8 ovarian, more than 31.6 µM; with SN12C renal it was more than 100 µM; in the assay with SF-295 CNS, 9.91 µM; in the assay on SF-539 CNS, 4.14 µM. For the same compound, the TGI stood at 6.85 µM in the assay on PC-3 prostate, 4.74 µM with HT29 colon, 6.82 µM in the assay on HS 578T breast and 3.16 µM with SNB-75 CNS.

Turning to `O=c1oc2ccc(-c3ccc(F)cc3F)cc2c(=O)n1-c1ccc(Cl)c(C(F)(F)F)c1`, the GI50 with HL-60(TB) leukemia is 2.43 µM; in the assay with CCRF-CEM leukemia, 2.63 µM; in the assay with OVCAR-8 ovarian it was 2.99 µM; with SN12C renal, 2.6 µM; in the assay with SF-295 CNS, 1.81 µM; in the assay on SF-539 CNS it was 2.54 µM. In addition, the GI50 with PC-3 prostate is 2.95 µM; in the assay with HT29 colon it was 3.07 µM; with HS 578T breast, 2.42 µM; with SNB-75 CNS it was 1.7 µM. The TGI in the assay with HL-60(TB) leukemia was 5.35 µM; with CCRF-CEM leukemia it was 8.75 µM; in the assay with OVCAR-8 ovarian, more than 100 µM; with SN12C renal, 11.7 µM; in the assay with SF-295 CNS, 3.62 µM; in the assay with SF-539 CNS, 7.09 µM. Moreover, the TGI was 35.8 µM with PC-3 prostate, more than 100 µM in the assay on HT29 colon, 8.16 µM in the assay on HS 578T breast and 4.2 µM in the assay on SNB-75 CNS.

On to `Cc1cccc(NC(=O)/C=C/c2ccc([N+](=O)[O-])cc2)c1`, for which the TGI in the assay with HL-60(TB) leukemia is more than 24.8 µM; in the assay with CCRF-CEM leukemia, more than 100 µM; in the assay on OVCAR-8 ovarian it was more than 53.7 µM; with SN12C renal it was more than 58.2 µM; in the assay on SF-295 CNS, more than 58 µM; in the assay on SF-539 CNS, more than 74.1 µM. Moreover, the TGI in the assay with PC-3 prostate is 28.6 µM; with HT29 colon, more than 70.3 µM; in the assay with HS 578T breast, more than 87 µM; in the assay on SNB-75 CNS, more than 60.4 µM.

`Cc1ccc(-c2nc([P+](c3ccccc3)(c3ccccc3)c3ccccc3)c(Nc3ccccc3)o2)cc1`: the GI50 with HL-60(TB) leukemia was 0.395 µM; in the assay on CCRF-CEM leukemia it was 0.445 µM; in the assay with OVCAR-8 ovarian, 1.05 µM; with SN12C renal, 0.541 µM; with SF-295 CNS, 1.14 µM; in the assay on SF-539 CNS it was 1.54 µM. Also, the GI50 in the assay with PC-3 prostate is 0.433 µM; with HT29 colon, 0.344 µM; in the assay with HS 578T breast it was 1.27 µM; in the assay on SNB-75 CNS, 1.23 µM. Besides, the TGI in the assay with HL-60(TB) leukemia was determined as 1.3 µM; in the assay on CCRF-CEM leukemia, 2.28 µM; in the assay on OVCAR-8 ovarian, 3.27 µM; in the assay on SN12C renal it was 1.84 µM; in the assay on SF-295 CNS, 2.41 µM; in the assay with SF-539 CNS, 2.91 µM. The TGI is 1.83 µM with PC-3 prostate, 1.45 µM in the assay on HT29 colon, 3.31 µM in the assay on HS 578T breast and 2.54 µM in the assay on SNB-75 CNS.

Turning to `CN(C)c1ccc(/C=c2/c3ccccc3n3c2c2cc(F)ccc2[n+]3C)cc1`, the GI50 in the assay on HL-60(TB) leukemia is 0.954 µM; in the assay on CCRF-CEM leukemia, 2.79 µM; in the assay with OVCAR-8 ovarian, 3.83 µM; in the assay on SF-295 CNS it was 6.31 µM; with SF-539 CNS, 2.59 µM; in the assay with PC-3 prostate, 5.72 µM. The GI50 in the assay on HT29 colon is 3.49 µM; in the assay with HS 578T breast it was 3.99 µM; in the assay on SNB-75 CNS, 8.07 µM. Besides, the TGI was more than 100 µM in the assay on HL-60(TB) leukemia; 46.1 µM in the assay with CCRF-CEM leukemia; 16.4 µM with OVCAR-8 ovarian; 2.7 µM in the assay on SN12C renal; 19.6 µM in the assay with SF-295 CNS; 7.49 µM in the assay with SF-539 CNS. The TGI with PC-3 prostate amounted to 19.9 µM; in the assay with HT29 colon, 40.8 µM; in the assay with HS 578T breast, 25.4 µM; with SNB-75 CNS it was 20.3 µM.
